Results reported in patent US7563459B2, “Methods and compositions for regenerating tissue” (The United States of America as represented by the …, priority 2002, dated 2009).
“Also recorded” adds a separate entry of the source.

Tests used:
[1] = test system: human CD34+ (hCD34+) peripheral blood stem cells; test: In vivo trafficking of 111In-labeled human CD34+ stem cells (HSC) after glycoprotein pretreatment, gamma camera imaging; set-up: species or system NOD-SCID mice
[2] = test system: human mesenchymal stem cells (MSC); test: In vivo trafficking of 111In-labeled human mesenchymal stem cells (MSC) after glycoprotein pretreatment, gamma camera imaging; set-up: species or system NOD-SCID mice
Protocol: Human mesenchymal stem cells (hMSCs; PT-2501) obtained through an FDA-monitored, paid bone marrow donor program were purchased from Poietics Technologies, BioWhittaker (Walkerville, Md.). The cells were thawed according to manufacturer recommendations, resuspended, and radiolabelled in Mesenchymal Stem Cell Basal Medium (MSCBM).
^111Indium Oxine Labelling Procedure: ^111In-oxine labelling of adult human CD34+ or mesenchymal stem cells (hMSCs) was performed using a modification of the Amersham Healthcare Procedure for labelling autologous leukocytes.
Imaging procedures: Nuclear Medicine. NOD-SCID mice were anesthetized using rodent anesthesia cocktail. Once anesthetized, the mice were placed on a foam hemi-cylindrical mouse-positioning device (MPD,) and covered with a tube sock. The MPD allows better visual separation of the lungs and liver as compared to placing the mouse on a flat surface. The foam on which the mouse was placed, and the tube sock covering maintained a comfortable temperature permitting longer imaging without additional anesthesia. The MPD was placed on a narrow table between the dual heads of a Siemens E.Cam Gamma Camera and imaged statically or dynamically in 2-D or SPECT. ^57Co-Spot Marker is used to mark anatomic positions (nose, tail, cannula, etc.). The data was analyzed using a Siemens ICON system for regions of interest or percent of injected dose (e.g., liver, spleen, heart).
Gamma camera imaging using a Siemens E.Cam dual head gamma camera monitored the in vivo trafficking patterns of all human stem cells described in the following examples. Mice were placed on a Mouse Positioning Device (MPD) and placed between the detectors on the imaging platform.
MSC were obtained from BioWhittaker, (Poietics Division, cryopreserved PT-2501>750000 cells per ampoule) and labelled with ^111In as in previous examples, except that the MSC were labelled, washed, and injected in Basal Stem Cell Medium (Poietics) containing 5% human serum albumin (HSA). 0.56×10^6, ^111In-labelled, human mesenchymal stem cells (MSC) were administered via an implanted DaVinci Microport Vascular System cannula in the external jugular vein of a two-month old, female NOD-SCID mouse in 0.21 ml of basal stem cell medium containing 5% human serum albumin (HSA). Immediately prior to administration of MSC, 11.0 mg of orosomucoid was administered i.v. in 0.2 ml.
0.56×10^6, ^111In-labeled MSC were administered i.v. in 0.21 ml of basal stem cell medium containing 5% human serum albumin (HSA). […]

[3] = test system: human CD34+ (hCD34+) peripheral blood stem cells; test: Microscopic examination of organs: immunohistochemical staining for human CD34 and in situ hybridization for human DNA after HSC infusion; assay type: in vivo, NOD-SCID mice
Text: Harvesting for tissues for histopathology: Tissues were harvested after euthanasia. After the 1-hour image, the organs were harvested and half the organ was fixed in 10% neutral buffered formalin and the other half was frozen in OTC for frozen sections. The images presented herein are from fixed tissues.
Necropsy Procedure For Collection of Mouse Tissues: An initial midline skin incision from the anterior cervical region to the brim of the pubis was made followed by an abdominal incision following linea alba from the sternum to the pubis with a lateral reflection of the abdominal wall by incision following the caudal ribs. The sternum was reflected anteriorly by cutting the ribs at approximately the level of the costochrondral junction, incising the diaphragm and pericardium as needed. Anteriorly, reflection of sternum was extended to include the ventral cervical muscles to expose the trachea. The trachea and esophagus were incised at the mid cervical area and reflected caudally, cutting attachments as necessary to remove the thoracic viscera in toto. Following removal of the thoracic viscera, the entire heart was dissected free and immersed in 10% neutral buffered formalin. […]
Mice were imaged and the biodistribution of the radiolabelled hCD34+ cells monitored as described above. […]

[4] = test system: human mesenchymal stem cells (MSC); test: In situ hybridization for human DNA in organs after MSC infusion; assay type: in vivo, NOD-SCID mice; conditions: 0.56×10^6 MSC preceded by 11 mg orosomucoid i.v.
Text: Mice were imaged and the biodistribution of the radiolabelled MSCs cells monitored as described in Example 1. […] The positions of the cannula, diaphragm, heart, lungs, and liver were verified by CT scans (coronal sections).
The positions of the cannula, diaphragm, heart, lungs, and liver were verified by CT scans. In situ hybridization confirmed the gamma camera biodistribution data.

[5] = test system: platelet aggregation induced by ADP and adrenaline; conditions: reported in the literature; cited from earlier work
[6] = cells infused into the jugular vein of immunodeficient mice, preceded by an infusion of the protein

Substance: Orosomucoid: alpha-(1)-acid glycoprotein, a normal constituent of human plasma; single polypeptide chain, approximately 45% carbohydrate including 12% sialic acid
- % infused cells in liver region ([1]; 0.5×10^6 HSC preceded by 11 mg orosomucoid i.v., 1 hr): 40±3%
- % infused cells in liver and spleen ([1]; 0.5×10^6 HSC preceded by 11 mg orosomucoid i.v., immediately after infusion): 43±2%
- 111In-labeled HSC in the region of the heart (imaging, words) ([1]; 5.75×10^6 HSC preceded by 5.5 mg orosomucoid i.v.): No ^111In-labeled cells were found in the region of the heart
- Organ in which hematopoietic stem cells localize (summary, words) [1, 6]: localize in the liver
- % Infused Cells In Heart ([2]; 0.56×10^6 MSC preceded by 11 mg orosomucoid i.v., 0 hr): 61.7-75.5%
- % Infused Cells In Heart ([2]; 0.56×10^6 MSC preceded by 11 mg orosomucoid i.v., 1 hr): 58-64%
- % Infused Cells In Heart ([2]; MSC/Orosomucoid, at 12 hr (Table 1)): 61 ± 3% at 12 hr
- Organ in which mesenchymal stem cells localize (summary, words) [2, 6]: predominantly localize in the heart
- Tissue location of hCD34+ cells (CD34 staining, in situ hybridization for human DNA) ([3]; 0.5×10^6 HSC preceded by 11 mg orosomucoid i.v., about 1 hour after infusion): Clusters of cells with stem cell morphology could be seen in the hepatic sinusoid; also recorded: not found in the heart muscle or interventricular septum but were present in the lung
- Migration of stem cells into tissue (summary, words) ([3]; hematopoietic stem cells after protein infusion): clusters of stem cells are found in the liver parenchyma
- Location of human cells by in situ hybridization [4]: human cells predominantly in the heart, but not the liver
- Amounts that inhibit platelet aggregation [5]: 5 to 15 mg/mL
